Assay results reported in patent US10736863B2, “Methods of inhibiting cataracts and presbyopia” (UNIVERSITY OF MASSACHUSETTS, priority 2015, dated 2020).

Target: T1, human γD-crystallin protein (Homo sapiens, UniProt P07320)
T1 construct: 6xHis (N); made in house; host or cells: E. coli (M15pRep; TAM 1 is also named as an expression line); pQe1 plasmids from the King Labs, MIT
T1 sequence (P07320 1-174): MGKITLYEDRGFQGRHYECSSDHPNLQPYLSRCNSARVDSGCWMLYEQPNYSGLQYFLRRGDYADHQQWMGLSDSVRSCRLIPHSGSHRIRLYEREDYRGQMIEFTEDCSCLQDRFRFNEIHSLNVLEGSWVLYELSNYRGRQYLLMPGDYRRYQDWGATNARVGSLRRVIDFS
Test: Dynamic light scattering of γD-crystallin protein modified with CA(PEG)n
Type: biochemical
Source text: The γD- and γS-crystallin DNA sequences are in pQe1 plasmids that were provided by the King Labs at Massachusetts Institute of Technology (Cambridge, Mass.). γ-crystallin protein sequences contain a 6×N-terminal histidine tag (his tag) for purification purposes. The plasmids were transformed into a cloning competent cell line to create additional plasmid DNA. Plasmids were subsequently transformed into an expression competent cell line for protein synthesis (TAM 1 E. coli cells (Active Motif. Carlsbad, Calif.)).
γ-crystallin plasmid DNA was chemically transformed into M15pRep E. coli cells for protein synthesis. 1 L cultures were grown for protein purification. γ-crystallin protein was purified by Ni affinity chromatography. The N-terminal His tag contained on the γ-crystallin proteins preferentially binds to the Ni column. The bound protein can be eluted with an imidazole gradient which competitively binds to the Ni, releasing the purified protein. The procedure for purification is briefly (as before): protein is loaded on column, and washed first with 20 mM (0% B), then 35 mM (10% B), then 60 mM (20% B) imidazole. Protein is then eluted at 150 mM (57% B) imidazole. Purity was confirmed by SDS PAGE gel electrophoresis and fast protein liquid chromatography (FPLC).
Chemical Modification Protocol: • 1) A batch of purified protein was buffer exchanged into PBS pH=6.8 using a HiTrap™ desalting column. • (2) Concentration (A280) was measured prior to the addition of CA(PEG)n. • (3) 100 mg of CA(PEG)n was added to a 3-5 ml batch of the above protein. • (4) The mixture was placed on a shaker at 4° C. at 250 RPM overnight.
First a solution of unmodified γD-crystallin protein at a concentration of 0.1 mg/mL was studied by DLS. The measured correlation function g2-1 is plotted against the delay time (lag time) is given for the scattering angle of 30° in FIG. 2. The CONTIN analysis of the weight of various relaxation times is given in FIG. 3 for scattering angles ranging from 30° to 60°. It is clear that there are two populations in the solution, one corresponding to aggregates and the other corresponding to unaggregated protein.

[1] = 0.9 mg/mL of protein and 33 mg/ml of CA(PEG)n
[2] = 0.4 mg/mL of protein and 15 mg/ml of CA(PEG)2
[3] = 0.3 mg/mL of protein and 11 mg/ml of CA(PEG)3

| aggregate population of γD-crystallin by dynamic light scattering [1] | size of the unaggregated protein by dynamic light scattering [1] | SMILES | further results |
| --- | --- | --- | --- |
| absent | 2 nm | NCCOCCC(=O)O [CA(PEG)1] |  |
|  |  | NCCOCCOCCC(=O)O [CA(PEG)2] | aggregate population of γD-crystallin by dynamic light scattering [2]: absent; size of the unaggregated protein by dynamic light scattering [2]: 2 nm |
|  |  | NCCOCCOCCOCCC(=O)O [CA(PEG)3] | aggregate population of γD-crystallin by dynamic light scattering [3]: absent; size of the unaggregated protein by dynamic light scattering [3]: 2 nm |
| absent | 2 nm | NCCOCCOCCOCCOCCC(=O)O [CA(PEG)4] |  |
